ChEMBL document CHEMBL5030530, “Design, synthesis, and cholinesterase inhibition assay of liquiritigenin derivatives as anti-Alzheimer's activity” (Bioorg Med Chem Lett, 2021)
The source made the active and inactive calls. The rule behind the calls is not given here.

Experiments:
Acetylcholinesterase = Acetylcholinesterase (Electrophorus electricus, UniProt O42275); experiment: Inhibition of electric eel AChE using acetylthiocholine iodide as substrate incubated for 15 to 20 mins by Ellman's method
Chain of Acetylcholinesterase (O42275 whole entry): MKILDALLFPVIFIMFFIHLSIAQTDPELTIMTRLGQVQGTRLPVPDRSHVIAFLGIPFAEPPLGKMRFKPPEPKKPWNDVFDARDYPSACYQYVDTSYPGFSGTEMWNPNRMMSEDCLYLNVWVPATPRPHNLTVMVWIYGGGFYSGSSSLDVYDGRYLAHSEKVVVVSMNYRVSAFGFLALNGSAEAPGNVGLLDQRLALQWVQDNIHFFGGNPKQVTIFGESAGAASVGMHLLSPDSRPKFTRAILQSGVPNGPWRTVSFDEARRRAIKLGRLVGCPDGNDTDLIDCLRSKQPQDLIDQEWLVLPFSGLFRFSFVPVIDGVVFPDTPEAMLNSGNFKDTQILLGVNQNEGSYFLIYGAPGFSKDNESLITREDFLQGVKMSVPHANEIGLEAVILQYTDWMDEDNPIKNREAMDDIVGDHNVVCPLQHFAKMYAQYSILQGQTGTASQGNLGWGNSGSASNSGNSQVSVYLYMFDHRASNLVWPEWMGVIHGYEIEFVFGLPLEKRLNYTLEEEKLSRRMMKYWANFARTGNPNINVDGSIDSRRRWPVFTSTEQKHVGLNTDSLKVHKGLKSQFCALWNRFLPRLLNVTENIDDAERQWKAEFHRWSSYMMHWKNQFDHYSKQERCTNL

[1] = Selectivity index, ratio of IC50 for equine serum BuChE using butyrylthiocholine chloride as substrate to IC50 for electric eel AChE using acetylthiocholine iodide as substrate incubated for 15 to 20 mins by Ellman's method; details: time 15-20 min
Cholinesterase = Cholinesterase (Equus caballus, UniProt P81908); experiment: Inhibition of equine serum BuChE using butyrylthiocholine chloride as substrate incubated for 15 to 20 mins by Ellman's method; format: cell-free
Chain of Cholinesterase (P81908 whole entry): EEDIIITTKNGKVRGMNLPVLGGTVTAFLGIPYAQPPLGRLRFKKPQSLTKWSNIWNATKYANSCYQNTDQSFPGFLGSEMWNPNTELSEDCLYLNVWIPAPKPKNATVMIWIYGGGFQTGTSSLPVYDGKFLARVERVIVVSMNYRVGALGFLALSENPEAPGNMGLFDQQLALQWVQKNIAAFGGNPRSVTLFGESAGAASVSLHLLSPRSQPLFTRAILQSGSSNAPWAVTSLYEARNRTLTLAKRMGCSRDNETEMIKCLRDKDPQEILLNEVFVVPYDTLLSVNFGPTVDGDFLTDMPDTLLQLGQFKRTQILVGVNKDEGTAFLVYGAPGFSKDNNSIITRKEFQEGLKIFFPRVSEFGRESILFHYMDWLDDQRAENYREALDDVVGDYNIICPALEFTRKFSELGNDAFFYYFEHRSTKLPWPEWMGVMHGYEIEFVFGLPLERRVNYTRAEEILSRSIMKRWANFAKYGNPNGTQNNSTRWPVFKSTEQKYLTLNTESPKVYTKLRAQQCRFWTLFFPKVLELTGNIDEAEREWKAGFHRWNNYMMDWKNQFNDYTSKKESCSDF

[2] = Antioxidant activity assessed as ABTS radical scavenging activity; format: functional
[3] = Cytotoxicity against human PBMC assessed as reduction in cell viability; format: ADME, tissue-based
HepG2 = experiment: Cytotoxicity against human HepG2 cells assessed as reduction in cell viability; format: ADME, cell-based
[4] = molecular target: Acetylcholinesterase (Electrophorus electricus) (UniProt O42275); experiment: Mixed type inhibition of electric eel AChE assessed as increase in Km at 3.2 to 12.8 uM using varying levels of acetylthiocholine iodide as substrate by Lineweaver-Burk plot analysis; details: dose 3.2-12.8 µM
Chain of Acetylcholinesterase (Electrophorus electricus) (O42275 24-633 limits assumed): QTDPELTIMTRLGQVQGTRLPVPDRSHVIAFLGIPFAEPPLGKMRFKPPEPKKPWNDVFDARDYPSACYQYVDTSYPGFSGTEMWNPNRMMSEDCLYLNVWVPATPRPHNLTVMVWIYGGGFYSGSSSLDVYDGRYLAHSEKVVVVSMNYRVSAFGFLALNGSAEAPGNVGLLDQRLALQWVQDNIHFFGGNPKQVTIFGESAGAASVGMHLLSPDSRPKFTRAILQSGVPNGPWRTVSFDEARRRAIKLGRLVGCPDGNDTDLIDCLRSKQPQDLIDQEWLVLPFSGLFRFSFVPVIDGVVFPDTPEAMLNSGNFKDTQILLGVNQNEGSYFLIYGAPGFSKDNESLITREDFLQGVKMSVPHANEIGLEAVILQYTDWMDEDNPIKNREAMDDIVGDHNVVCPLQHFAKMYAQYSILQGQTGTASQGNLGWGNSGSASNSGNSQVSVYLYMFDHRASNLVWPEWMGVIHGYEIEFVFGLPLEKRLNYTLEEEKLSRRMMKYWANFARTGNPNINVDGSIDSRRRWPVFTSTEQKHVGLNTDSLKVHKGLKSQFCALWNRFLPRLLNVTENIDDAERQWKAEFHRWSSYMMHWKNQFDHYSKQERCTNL

[5] = molecular target: Acetylcholinesterase (Electrophorus electricus) (UniProt O42275); experiment: Mixed type inhibition of electric eel AChE assessed as decrease in Vmax at 3.2 to 12.8 uM using varying levels of acetylthiocholine iodide as substrate by Lineweaver-Burk plot analysis; details: dose 3.2-12.8 µM

| SMILES | IC50 (Acetylcholinesterase) [µM] | Ratio IC50 [1] | IC50 (Cholinesterase) [µM] | IC50 [2] [µM] | IC50 [3] [µM] | IC50 (HepG2) [µM] | inhibition [4] | inhibition [5] |
| --- | --- | --- | --- | --- | --- | --- | --- | --- |
| CC(C)=CCOc1ccc2c(c1)OC(c1ccc(Br)cc1)CC2=O (stereo unspecified) | 0.77 | 5.03 | 3.87 | 8.12 |  |  |  |  |
| CC(C)=CCOc1cc(O)c2c(c1)OC(c1ccc(Br)cc1)CC2=O (stereo unspecified) | 0.11 | 54.9 | 6.04 | 2.77 | > 100 | > 80 |  |  |
| CC(C)=CCOc1cc(O)c2c(c1)OC(c1ccc(Cl)cc1Cl)CC2=O (stereo unspecified) | 1.04 | 6.67 | 6.94 | 3.34 |  |  |  |  |
| CC(C)=CCOc1cc(O)c2c(c1)OC(c1cccc(Br)c1)CC2=O (stereo unspecified) | 0.82 | 6.37 | 5.22 | 4.04 |  |  |  |  |
| COc1ccc(C2CC(=O)c3ccc(OCC=C(C)C)cc3O2)c(OC)c1 (stereo unspecified) | 0.37 | 15.3 | 5.65 | 8.18 |  |  |  |  |
| CC(C)=CCOc1ccc2c(c1)OC(c1ccc(Cl)cc1)CC2=O (stereo unspecified) | 2.12 | 1.99 | 4.22 | 6.97 |  |  |  |  |
| CC(C)=CCOc1ccc2c(c1)OC(c1ccccc1F)CC2=O (stereo unspecified) | 1.92 | 2.85 | 5.47 | 6.36 |  |  |  |  |
| Cc1c(C)c2c(c(C)c1O)CCC(C)(C(=O)O)O2 (stereo unspecified) [TROLOX] |  |  |  | 6.12 |  |  |  |  |
| CC(C)=CCOc1ccc2c(c1)OC(c1cccc(Cl)c1)CC2=O (stereo unspecified) | 1.5 | 2.39 | 3.59 | 6.3 |  |  |  |  |
| CC(C)=CCOc1ccc2c(c1)OC(c1ccc(C)cc1C)CC2=O (stereo unspecified) | 0.94 | 3.64 | 3.42 | 8.26 |  |  |  |  |
| COc1ccc(C2CC(=O)c3c(O)cc(OCC=C(C)C)cc3O2)cc1 (stereo unspecified) | 0.27 | 21.4 | 5.77 | 5.08 |  |  |  |  |
| CC(C)=CCOc1cc(O)c2c(c1)OC(c1ccccc1F)CC2=O (stereo unspecified) | 1.27 | 5.8 | 7.37 | 5.3 |  |  |  |  |
| COc1ccc(C2CC(=O)c3c(O)cc(OCC=C(C)C)cc3O2)c(OC)c1 (stereo unspecified) | 0.09 | 60.7 | 5.46 | 2.32 | > 100 | > 100 | Active | Active |
| CC(C)=CCOc1ccc2c(c1)OC(c1cccc(Br)c1)CC2=O (stereo unspecified) | 1.84 | 2.45 | 4.5 | 5.28 |  |  |  |  |
| CC(C)=CCOc1ccc2c(c1)OC(c1ccccc1)CC2=O (stereo unspecified) | 5.32 | 1.79 | 9.54 | 6.07 |  |  |  |  |
| COc1ccc(C2CC(=O)c3ccc(OCC=C(C)C)cc3O2)cc1 (stereo unspecified) | 0.63 | 7.21 | 4.54 | 10.2 |  |  |  |  |
| CC(C)=CCOc1cc(O)c2c(c1)OC(c1ccc(F)cc1)CC2=O (stereo unspecified) | 0.24 | 28.5 | 6.84 | 6.06 |  |  |  |  |
